The test addresses T1, SIRT1 (Homo sapiens, UniProt Q96EB6).
T1 construct: His-tag (N); made in house; host or cells: E. coli BL21(DE3), T7-promoter vector
T1 sequence (Q96EB6 1-747): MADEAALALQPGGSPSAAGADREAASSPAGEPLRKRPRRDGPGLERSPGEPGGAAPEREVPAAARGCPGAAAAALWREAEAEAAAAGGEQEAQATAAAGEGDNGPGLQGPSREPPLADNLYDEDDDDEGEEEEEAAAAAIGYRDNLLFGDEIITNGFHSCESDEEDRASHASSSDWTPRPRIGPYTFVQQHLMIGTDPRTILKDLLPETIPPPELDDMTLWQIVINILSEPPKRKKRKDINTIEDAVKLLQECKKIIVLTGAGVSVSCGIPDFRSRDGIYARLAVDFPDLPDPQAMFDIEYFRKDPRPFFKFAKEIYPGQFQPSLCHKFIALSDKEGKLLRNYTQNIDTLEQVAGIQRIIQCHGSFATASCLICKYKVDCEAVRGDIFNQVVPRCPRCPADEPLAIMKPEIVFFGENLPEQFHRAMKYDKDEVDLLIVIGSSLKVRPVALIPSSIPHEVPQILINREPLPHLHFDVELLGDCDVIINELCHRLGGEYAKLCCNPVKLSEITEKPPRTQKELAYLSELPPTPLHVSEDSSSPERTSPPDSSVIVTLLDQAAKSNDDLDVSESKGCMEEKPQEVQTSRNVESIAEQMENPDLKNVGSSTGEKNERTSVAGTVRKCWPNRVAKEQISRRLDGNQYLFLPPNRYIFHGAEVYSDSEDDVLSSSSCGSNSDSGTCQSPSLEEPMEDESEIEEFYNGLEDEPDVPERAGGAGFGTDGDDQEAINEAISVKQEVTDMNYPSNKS
Description: Mass spectrometry based assay for modulators of SIRT1 activity (deacetylation of p53-based acetylated peptide). Type of test: biochemical. The settings on record: for EC1.5: concentration of test compound that results in 150% activation of SIRT1, 0.5 μM peptide substrate, 120 μM βNAD+, 10 nM SIRT1, 25 min, 25° C.; for Emax: percent maximum fold activation of SIRT1. The text has this:
A mass spectrometry based assay was used to identify modulators of SIRT1 activity. The mass spectrometry based assay utilizes a peptide having 20 amino acid residues as follows: Ac-EE-K(biotin)-GQSTSSHSK(Ac)NleSTEG-K(5TMRi)-EE-NH2 (SEQ ID NO: 1) wherein K(Ac) is an acetylated lysine residue and Nle is a norleucine. The peptide is labeled with the fluorophore 5TMR (excitation 540 nm/emission 580 nm) at the C-terminus. The sequence of the peptide substrate is based on p53 with several modifications. In addition, the methionine residue naturally present in the sequence was replaced with the norleucine because the methionine may be susceptible to oxidation during synthesis and purification.
The mass spectrometry assay is conducted as follows: 0.5 μM peptide substrate and 120 μM βNAD+ is incubated with 10 nM SIRT1 for 25 minutes at 25° C. in a reaction buffer (50 mM Tris-acetate pH 8, 137 mM NaCl, 2.7 mM KCl, 1 mM MgCl2, 5 mM DTT, 0.05% BSA). Test compounds may be added to the reaction as described above. The SirT1 gene is cloned into a T7-promoter containing vector and transformed into BL21(DE3). After the 25 minute incubation with SIRT1, 10 μL of 10% formic acid is added to stop the reaction. Reactions are sealed and frozen for later mass spec analysis. Determination of the mass of the substrate peptide allows for precise determination of the degree of acetylation (i.e. starting material) as compared to deacetylated peptide (product).
A control for inhibition of sirtuin activity is conducted by adding 1 μL of 500 mM nicotinamide as a negative control at the start of the reaction (e.g., permits determination of maximum sirtuin inhibition). A control for activation of sirtuin activity is conducted using 10 nM of sirtuin protein, with 1 μL of DMSO in place of compound, to determinine the amount of deacetylation of the substrate at a given timepoint within the linear range of the assay. This timepoint is the same as that used for test compounds and, within the linear range, the endpoint represents a change in velocity.
For the above assay, SIRT1 protein was expressed and purified as follows. The SirT1 gene was cloned into a T7-promoter containing vector and transformed into BL21(DE3). The protein was expressed by induction with 1 mM IPTG as an N-terminal His-tag fusion protein at 18° C. overnight and harvested at 30,000×g. Cells were lysed with lysozyme in lysis buffer (50 mM Tris-HCl, 2 mM Tris[2-carboxyethyl]phosphine (TCEP), 10 μM ZnCl2, 200 mM NaCl) and further treated with sonication for 10 min for complete lysis. The protein was purified over a Ni-NTA column (Amersham) and fractions containing pure protein were pooled, concentrated and run over a sizing column (Sephadex S200 26/60 global). The peak containing soluble protein was collected and run on an Ion-exchange column (MonoQ). Gradient elution (200 mM-500 mM NaCl) yielded pure protein. This protein was concentrated and dialyzed against dialysis buffer (20 mM Tris-HCl, 2 mM TCEP) overnight. The protein was aliquoted and frozen at −80° C. until further use.
Sirtuin modulating compounds that activated SIRT1 were identified using the assay described above and are shown below in Table 1. The EC1.5 values represent the concentration of test compounds that result in 150% activation of SIRT1. The EC1.5 values for the activating compounds are represented by A (EC1.5<1.0 uM), B (EC1.5 1-25 uM), C (EC1.5>25 uM). The percent maximum fold activation is represented by A (Fold activation >200%) or B (Fold Activation <200%). “NT” indicates the compound was not tested in a particular assay.

Turning to `O=C(Nc1nc(CN2CCOCC2)cs1)c1nccn2cc(-c3ccc(F)c(F)c3)nc12` [Compound 194], the EC1.5 result is reported as “B (EC1.5 1-25 uM)” and the Emax is above 200%.

For the compound `O=C(Nc1cnccn1)c1cccn2cc(-c3ccccc3)nc12` [Compound 109], the EC1.5 entry is “B (EC1.5 1-25 uM)” and the Emax was below 200%.

Consider `Cc1ccc(-c2nc3c(C(=O)Nc4cccc(CN5CCOCC5)n4)cccn3n2)cn1` [Compound 213], for which the EC1.5 entry is recorded as “B (EC1.5 1-25 uM)” and the Emax was above 200%.

As to `Cc1ccc(-c2nc3c(C(=O)Nc4nccs4)cccn3n2)cn1` [Compound 210, 2-(6-methylpyridin-3-yl)-N-(thiazol-2-yl)-[1,2,4]triazolo[1,5-a]pyridine-8-carboxamide], the EC1.5 entry is given as “C (EC1.5>25 uM)” and the Emax was below 200%.

Consider `O=C(Nc1ccc(CCN2CCOCC2)cc1)c1cccn2cc(-c3ccc(F)cc3C(F)(F)F)nc12` [Compound 170], for which the EC1.5 entry is “A (EC1.5<1.0 uM)” and the Emax was above 200%.

As to `O=C(Nc1ccccn1)c1cccn2cc(-c3ccc(N4CCCC4)cc3)nc12` [Compound 167], the EC1.5 entry is reported as “C (EC1.5>25 uM)” and the Emax was below 200%.

For `O=C(Nc1cnccn1)c1cccn2cc(-c3cccc(C(F)(F)F)c3)nc12` [Compound 118], the EC1.5 result was “B (EC1.5 1-25 uM)” and the Emax is below 200%.

As for `O=C(Nc1cccn2cc(-c3ccccc3)nc12)C1CCNCC1` [Compound 103], the EC1.5 entry is reported as “C (EC1.5>25 uM)” and the maximum response (Emax) is below 200%.

For `O=C(Nc1ccccn1)c1nccn2cc(-c3cccc(OC(F)(F)F)c3)nc12` [Compound 143], the EC1.5 result is recorded as “C (EC1.5>25 uM)” and the Emax is below 200%.

Take `O=C(Nc1cccc(OCC(O)CO)c1)c1cccn2cc(-c3cccc(C(F)(F)F)c3)nc12` (stereo not shown) [Compound 137, N-(3-(2,3-dihydroxypropoxy)phenyl)-2-(3-(trifluoromethyl)phenyl)imidazo[1,2-a]pyridine-8-carboxamide]: the EC1.5 result is given as “A (EC1.5<1.0 uM)” and the Emax was above 200%.

In the case of `Cc1csc(NC(=O)c2cccn3cc(-c4ccccc4)nc23)n1` [Compound 107], the EC1.5 entry was “B (EC1.5 1-25 uM)” and the Emax is above 200%.

Take `O=C(Nc1ccc(CCN2CCCC2)cc1)c1cccn2cc(-c3ccc(F)cc3C(F)(F)F)nc12` [Compound 218]: the EC1.5 result is “C (EC1.5>25 uM)” and the Emax was below 200%.

On to `O=C(Nc1nccs1)c1cccn2nc(-c3ccccc3OC(F)F)nc12` [Compound 225], for which the EC1.5 result is listed as “B (EC1.5 1-25 uM)” and the maximal effect (Emax) was above 200%.

On to `O=C(Nc1cccc(CN2CCOCC2)n1)c1cccn2cc(-c3cc(F)ccc3F)nc12` [Compound 201], for which the EC1.5 result is given as “A (EC1.5<1.0 uM)” and the Emax was above 200%.

In the case of `O=C(Nc1ncc(CN2CCOCC2)s1)c1cccn2cc(-c3cccc(OC(F)(F)F)c3)nc12` [Compound 135], the EC1.5 result is listed as “B (EC1.5 1-25 uM)” and the Emax is above 200%.

For `O=C(Nc1ccccc1)c1cccn2cc(-c3ccccc3)nc12` [Compound 108], the EC1.5 entry is “C (EC1.5>25 uM)” and the Emax is below 200%.

With `O=C(Nc1cccc(CN2CCOCC2)n1)c1nccn2cc(-c3ccccc3C(F)(F)F)nc12` [Compound 259], the EC1.5 result is on record as “A (EC1.5<1.0 uM)” and the Emax was above 200%.

In the case of `O=C(Nc1cccn2cc(-c3cccc(-c4ccccc4)c3)nc12)c1cnccn1` [Compound 123, N-(2-(biphenyl-3-yl)imidazo[1,2-a]pyridin-8-yl)pyrazine-2-carboxamide], the EC1.5 entry is “C (EC1.5>25 uM)” and the Emax is below 200%.

Take `O=C(Nc1nccs1)c1cccn2cc(-c3cccc(C(F)(F)F)c3)nc12` [Compound 112]: the EC1.5 entry is given as “C (EC1.5>25 uM)” and the Emax was below 200%.

For `O=C(Nc1ccccn1)c1cccn2nc(-c3ccc(N4CCOCC4)cc3C(F)(F)F)nc12` [Compound 220], the EC1.5 result is “A (EC1.5<1.0 uM)” and the Emax was above 200%.

On to `O=C(Nc1nc(CN2CCOCC2)cs1)c1cccn2cc(-c3cccc(C(F)(F)F)c3)nc12` [Compound 132, N-(4-(morpholinomethyl)thiazol-2-yl)-2-(3-(trifluoromethyl)phenyl)imidazo[1,2-a]pyridine-8-carboxamide], for which the EC1.5 entry is “A (EC1.5<1.0 uM)” and the Emax is above 200%.

As for `O=C(Nc1nccs1)c1cccn2nc(-c3ccc(OCC(O)CO)cc3C(F)F)nc12` (stereo in doubt) [Compound 249, (R)-2-(2-(difluoromethyl)-4-(2,3-dihydroxypropoxy)phenyl)-N-(thiazol-2-yl)-[1,2,4]triazolo[1,5-a]pyridine-8-carboxamide], the EC1.5 entry is on record as “C (EC1.5>25 uM)” and the Emax is below 200%.

`O=C(Nc1nc(CN2CCOCC2)cs1)c1cccn2cc(-c3ccc(F)cc3F)nc12` [Compound 198]: the EC1.5 result is “A (EC1.5<1.0 uM)” and the Emax is below 200%.

In the case of `O=C(Nc1ccccn1)c1cccn2nc(-c3ccc(OC[C@@H](O)CO)cc3C(F)F)nc12` [Compound 250], the EC1.5 entry is listed as “B (EC1.5 1-25 uM)” and the Emax was above 200%.

On to `O=C(Nc1cccc(CN2CCOCC2)n1)c1cccn2cc(-c3ccc(F)c(F)c3)nc12` [Compound 195], for which the EC1.5 entry is “B (EC1.5 1-25 uM)” and the Emax was above 200%.

For the compound `O=C(Nc1nc(CN2CCOCC2)cs1)c1cccn2cc(-c3cccc(C(F)F)c3)nc12` [Compound 208], the EC1.5 entry is recorded as “A (EC1.5<1.0 uM)” and the Emax was above 200%.

As for `O=C(Nc1nccs1)c1cccn2cc(-c3ccccc3C(F)(F)F)nc12` [Compound 148], the EC1.5 entry is “C (EC1.5>25 uM)” and the Emax is below 200%.

As to `O=C(Nc1nc(CN2CCOCC2)cs1)c1cccn2nc(-c3cccc(C(F)(F)F)c3)nc12` [Compound 177, N-(4-(morpholinomethyl)thiazol-2-yl)-2-(3-(trifluoromethyl)phenyl)-[1,2,4]triazolo[1,5-a]pyridine-8-carboxamide], the EC1.5 entry is listed as “B (EC1.5 1-25 uM)” and the Emax is above 200%.

Turning to `O=C(Nc1ccccn1)c1cccn2cc(-c3ccccc3F)nc12` [Compound 153], the EC1.5 entry is “C (EC1.5>25 uM)” and the Emax is below 200%.

The values are drawn from patent publication US20110077248A1, “IMIDAZOPYRIDINE AND RELATED ANALOGS AS SIRTUIN MODULATORS” (Sirtris Pharmaceuticals, Inc., priority 2008, published 2011).
